# Tests used:
# mouse ATB^0,+ [1] = target: T1, mouse ATB^0,+ (Mus musculus, UniProt Q9JMA9); experiment: Inhibition of ATB^0,+-mediated glycine uptake in HRPE cells expressing cloned mouse ATB^0,+; type: cell-based; conditions: glycine 10 μM; inhibitor 1 mM; 30 min; NaCl; HRPE cells
# T1 sequence (Q9JMA9 1-638): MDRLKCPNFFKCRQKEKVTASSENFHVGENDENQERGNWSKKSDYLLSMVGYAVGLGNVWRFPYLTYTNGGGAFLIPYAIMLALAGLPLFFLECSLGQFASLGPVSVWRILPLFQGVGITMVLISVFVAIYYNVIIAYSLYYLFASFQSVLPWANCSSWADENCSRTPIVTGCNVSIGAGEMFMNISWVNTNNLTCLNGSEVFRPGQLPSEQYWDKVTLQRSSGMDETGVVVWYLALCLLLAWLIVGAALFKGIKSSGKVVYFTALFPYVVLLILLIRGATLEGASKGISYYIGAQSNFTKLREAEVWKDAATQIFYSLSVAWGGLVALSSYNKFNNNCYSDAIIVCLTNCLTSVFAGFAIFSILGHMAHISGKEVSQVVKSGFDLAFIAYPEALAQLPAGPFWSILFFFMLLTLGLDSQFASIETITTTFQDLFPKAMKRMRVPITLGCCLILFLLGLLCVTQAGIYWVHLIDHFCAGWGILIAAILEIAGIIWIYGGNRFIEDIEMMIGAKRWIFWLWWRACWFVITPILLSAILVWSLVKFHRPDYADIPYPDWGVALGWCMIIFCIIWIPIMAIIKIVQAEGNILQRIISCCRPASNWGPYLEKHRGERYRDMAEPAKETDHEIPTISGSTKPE
# mouse ATB^0,+ [2] = target: T1, mouse ATB^0,+; experiment: Substrate-induced inward currents in X. laevis oocytes expressing mouse ATB^0,+ (two-microelectrode voltage clamp); type: cell-based; conditions: saturation kinetics; NaCl; voltage clamp
# Procedure: (§1) Capped cRNA from the cloned mouse or human ATB^0,+ cDNA was synthesized using the mMESSAGE mMACHTNE kit (Ambion, Austin, Tex., U.S.A.). Mature oocytes (stage IV or V) from X. laevis were injected with 50 ng of cRNA. Uninjected oocytes served as controls. The oocytes were used for electrophysiological studies 3-6 days after cRNA injection. Electrophysiological studies were performed by the two-microelectrode voltage-clamp method (Nakanishi et al., 2001, J. Physiol. 532, 297-304). Oocytes were superfused with an NaCl-containing buffer (100 mM NaCl, 2 mM KCl, 1 mM MgCl2, 1 mM CaCl2, 3 mM Hepes, 3 mM Mes and 3 mM Tris, pH 7.5), followed by the same buffer containing tryptophan derivatives. The membrane potential was clamped at −50 mV. The differences between the steady-state currents measured in the presence and absence of substrates were considered as the substrate-induced currents. In the analysis of the saturation kinetics of substrate-induced currents, the kinetic parameter K0.5 (i.e. substrate concentration necessary for induction of half-maximal current) was calculated by fitting the values of the substrate-induced currents to the Michaelis-Menten equation. The Na^+ and Cl^− activation kinetics of substrate-induced currents were analysed by measuring the substrate-specific currents in the presence of increasing concentrations of Na^+ (concentration of Cl^− kept constant at 100 mM) or in the presence of increasing concentrations of Cl^− (concentration of Na^+ kept constant at 100 mM). In these experiments, the composition of the superfusion buffer was modified to contain 2 mM potassium gluconate, 1 mM MgSO4 and 1 mM calcium gluconate in place of KCl, MgCl2 and CaCl2 respectively. The data from these experiments were analysed by the Hill equation to determine the Hill coefficient (h; number of Na^+ and Cl^− ions involved in the activation process). The kinetic parameters were determined by using the commercially available computer program Sigma Plot, version 6.0 (SPSS, Chicago, Ill., U.S.A.). Uninjected oocytes were used to determine the currents induced by tryptophan derivatives due to entry via transporters that may be constitutively expressed in the oocytes. At a concentration of 2.5 mM, the currents induced by these compounds were in the range of 0-3 nA in uninjected oocytes. These currents were less than 2% of the corresponding currents induced in ATB^0,+ cRNA-injected oocytes. Therefore the endogenous currents associated with the constitutively expressed transporters were not considered in the analysis of kinetic parameters of ATB^0,+ transport activity.
# The above studies with the mammalian cell expression system have focused on the interaction of 1-methyltryptophan and other tryptophan derivatives with ATB^0,+ by examining the effects of these compounds on the transporter-mediated glycine uptake. These studies have shown convincingly that 1-methyltryptophan interacts with ATB^0,+, with the L-isomer having much higher affinity for the transporter than the D-isomer. However, these studies have not shown whether or not 1-methyltryptophan is actually a transportable substrate for ATB^0,+. It is possible that 1-methyltryptophan inhibits ATB^0,+-mediated glycine uptake simply by blocking the interaction of glycine with the substrate-binding site of the transporter, rather than by actually competing with glycine for the transport process. […] We wanted to know whether 1-methyltryptophan can actually be transported by ATB^0,+. For this, we used the X. laevis oocyte expression system. Since the transport process mediated by ATB^0,+ is electrogenic, exposure of ATB^0,+-expressing oocytes to transportable substrates will induce an inward current in an Na^+- and Cl^−-dependent manner. Exposure of the same oocytes to blockers will interfere with currents induced by transportable substrates, but will not induce currents by themselves. […]
# human ATB^0,+ [3] = target: T2, human ATB^0,+ (Homo sapiens, UniProt Q9UN76); experiment: L-tryptophan-induced inward currents in X. laevis oocytes expressing human ATB^0,+; type: cell-based; conditions: 20 μM L-tryptophan (sub-saturating)
# T2 construct: The human ATB^0,+ cDNA was cloned from an MCF7 cell (a human mammary epithelial cancer cell line) cDNA library; expressed in transfected cells; host or cells: Xenopus laevis oocytes injected with 50 ng capped cRNA
# T2 sequence (Q9UN76 1-642): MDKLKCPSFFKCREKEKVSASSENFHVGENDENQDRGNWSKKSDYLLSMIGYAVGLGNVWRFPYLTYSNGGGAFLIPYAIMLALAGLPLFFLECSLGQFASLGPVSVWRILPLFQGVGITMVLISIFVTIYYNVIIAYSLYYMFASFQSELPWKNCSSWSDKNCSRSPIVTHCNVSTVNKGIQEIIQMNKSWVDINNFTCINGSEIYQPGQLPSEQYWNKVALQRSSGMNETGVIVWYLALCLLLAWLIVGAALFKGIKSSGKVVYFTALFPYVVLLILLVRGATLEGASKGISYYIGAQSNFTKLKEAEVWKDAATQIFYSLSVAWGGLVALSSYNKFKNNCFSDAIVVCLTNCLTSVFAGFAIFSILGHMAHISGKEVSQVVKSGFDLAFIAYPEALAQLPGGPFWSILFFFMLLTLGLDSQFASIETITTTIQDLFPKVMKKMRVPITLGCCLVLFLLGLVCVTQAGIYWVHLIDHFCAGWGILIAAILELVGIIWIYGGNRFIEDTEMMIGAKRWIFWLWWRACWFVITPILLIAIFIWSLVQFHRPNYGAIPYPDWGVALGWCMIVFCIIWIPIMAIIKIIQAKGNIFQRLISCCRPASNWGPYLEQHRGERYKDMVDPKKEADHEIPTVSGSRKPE
# Procedure: as §1, with “Uninjected oocytes were used to determine the currents induced by tryptophan derivatives due to entry via transporters that may be constitutively expressed in the oocytes. At a concentration of 2.5 mM, the currents induced by these compounds were in the range of 0-3 nA in uninjected oocytes. These currents were less than 2% of the corresponding currents induced in ATB^0,+ cRNA-injected oocytes. Therefore the endogenous currents associated with the constitutively expressed transporters were not considered in the analysis of kinetic parameters of ATB^0,+ transport activity.” left out
# human ATB^0,+ [4] = target: T2, human ATB^0,+; experiment: Block of inward currents induced by amino acid mixture simulating plasma in X. laevis oocytes expressing human ATB^0,+; type: cell-based
# Procedure: as §1
# These studies with α-methyl-DL-tryptophan as a blocker of ATB^0,+ were carried out with L-tryptophan at sub-saturating concentrations. […] Therefore, using the Xenopus oocyte heterologous expression system, we monitored the transport activity of human ATB^0,+ in the presence of an amino acid mixture consisting of 18 different amino acids, each at its respective physiological concentration found in plasma (Glew et al., 2004, Clin. Chim. Acta 342, 179-185) (Table 1). Inward currents were detected under these conditions in oocytes expressing human ATB^0,+. […] We then monitored the ability of α-methyl-DL-tryptophan to block the inward currents induced by the same mixture of amino acids in oocytes expressing human ATB^0,+ (FIG. 4B). […]
# HCT116 and LS174T cells [5] = experiment: Amino acid starvation markers: ASNS and CHOP gene induction in ATB^0,+-positive colon cancer cell lines; type: cell-based, human; conditions: 250 μM; 24 hour exposure
# Procedure: (§2) The mTOR pathway plays a critical role in nutrient signaling in mammalian cells (Wang and Proud, 2006, Physiology (Bethesda) 21: 362-369). Amino acid starvation leads to specific changes in this pathway. We sought evidence for amino acid starvation in ATB^0,+-positive colon cancer cell lines when exposed to α-methyl-L-tryptophan (α-MLT) (250 μM). […] These changes were also accompanied with cell cycle arrest in cancer cell lines (FIG. 16). In the normal cell line CCD841, there was no difference between control and α-MLT-treated cells in terms of percent of cells in difference cell cycle stages. […] The phosphorylation pattern observed in the two cancer cell lines is a hallmark of changes in mTOR pathway in response to amino acid deprivation. Autophagy (self-cannabilism) is another cellular process that is induced when cells undergo amino acid deprivation (Eisenberg-Lerner and Kimchi, 2009, Apoptosis 14: 376-391). To survive in the absence of exogenous essential amino acids during amino acid deprivation, cells engage in autophagic degradation of intracellular macromolecules and organelles as a source of these amino acids. Therefore, we investigated the process of autophagy in LS174T cells with and without exposure to α-MLT for 24 hours. For this, we analyzed the distribution of LC-3 protein. […] Apoptosis was quantified by FACS analysis.
# HCT116 and LS174T cells [6] = experiment: Cell cycle analysis in colon cancer cell lines; type: cell-based, human; conditions: 250 μM; 24 hour
# Procedure: as §2
# CCD841 cells [7] = experiment: Cell cycle analysis in normal colon cell line; type: cell-based, human; conditions: 250 μM; 24 hour
# Procedure: as §2
# HCT116 and LS174T cells [8] = experiment: mTOR pathway: phosphorylation of S6 protein and S6 kinase in colon cancer cell lines; type: cell-based, human; conditions: 24 h exposure
# Procedure: as §2
# CCD841 cells [9] = experiment: mTOR pathway: phosphorylation of S6 protein and S6 kinase in normal colon cell line; type: cell-based, human; conditions: 24 h exposure
# Procedure: as §2
# LS174T cells = experiment: Autophagy: immunofluorescent localization of LC-3 in colon cancer cells; type: cell-based, human; conditions: 24 hours exposure
# Procedure: as §2
# CCD841 cells [10] = experiment: Autophagy: immunofluorescent localization of LC-3 in normal colon cells; type: cell-based, human; conditions: absence or presence of α-MLT
# HCT116 and LS174T cells [11] = experiment: Apoptosis (sub-G1 cells, FACS) in colon cancer cell lines; type: cell-based, human; conditions: 72 hours
# Procedure: as §2
SMILES,"inhibition of ATB^0,+-specific glycine uptake (mouse ATB^0,+ [1])","Michaelis constant (K0.5) of substrate-induced currents (mouse ATB^0,+ [2])","inward currents induced by L-tryptophan (human ATB^0,+ [3])","IC50 (human ATB^0,+ [4]; 18 amino acids at normal plasma concentrations, read-out: concentration necessary to elicit 50% of maximal inhibition (IC50) of amino acid mixture-induced currents)","IC50 of L-isomer relative to DL-form (times less) (human ATB^0,+ [4]; amino acid mixture simulating plasma)",induction of ASNS and CHOP genes (HCT116 and LS174T cells [5]),percent of cells in G1 phase (HCT116 and LS174T cells [6]),percent of cells in S and G2/M phases (HCT116 and LS174T cells [6]),"percent of cells in different cell cycle stages, control versus treated (CCD841 cells [7])",phosphorylation of S6 protein and S6 kinase (HCT116 and LS174T cells [8]),phosphorylation of S6 protein and S6 kinase (CCD841 cells [9]),punctate fluorescent signals for LC-3 (autophagy) (LS174T cells),autophagy (CCD841 cells [10]),percent of apoptotic cells (cells in sub-G1 phase) (HCT116 and LS174T cells [11])
N[C@@H](Cc1c[nH]c2ccccc12)C(=O)O [L-tryptophan],inhibited,26 ± 3 µM,~30 nA,–,–,–,–,–,–,–,–,–,–,–
"C[C@](N)(Cc1c[nH]c2ccccc12)C(=O)O [α-methyl-L-tryptophan, α-Methyl-L-Tryptophan]",–,–,–,18 ± 5 µM,14 times,induced,increased significantly,decreased,no difference,decreased phosphorylation,not in CCD841 cells,showed clear evidence of such signals,did not undergo autophagy,increased the percent of apoptotic cells

# Source: patent US8436039B2, “Inhibitors of the ATB(0,+) transporter and uses thereof” (Georgia Health Sciences University Research Institute, Inc., priority 2008, dated 2013)
